Assay results published in BindingDB's records for doi:10.1016/0006-2952(81)90220-3 (Royal Postgraduate Medical School, 1981).
pKi: −log10 of the molar value. “And” between values parts separate entries of the source, which are not always exact repeats. Equal entries are not always repeated.

Biological target: Prostacyclin receptor (Mus musculus, UniProt P43252)
Sequence (P43252 whole entry): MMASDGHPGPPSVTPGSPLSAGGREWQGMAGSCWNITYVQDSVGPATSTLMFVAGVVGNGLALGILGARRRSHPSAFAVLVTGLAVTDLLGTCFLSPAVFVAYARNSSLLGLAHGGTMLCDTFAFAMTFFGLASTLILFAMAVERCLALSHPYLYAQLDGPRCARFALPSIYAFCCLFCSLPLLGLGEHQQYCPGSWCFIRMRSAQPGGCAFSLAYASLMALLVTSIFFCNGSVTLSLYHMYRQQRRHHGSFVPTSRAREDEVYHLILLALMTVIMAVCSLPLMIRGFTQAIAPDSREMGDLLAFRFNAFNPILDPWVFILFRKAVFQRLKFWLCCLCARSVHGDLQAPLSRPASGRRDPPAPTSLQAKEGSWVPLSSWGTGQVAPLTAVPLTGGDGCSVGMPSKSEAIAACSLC

SMILES	pKi
CCCCC[C@H](O)/C=C/C1[C@H](O)CC(=O)[C@H]1CCCCCCC(=O)O (stereo partly drawn) [8-ISO PROSTAGLANDIN E1]	6.13
CCCCCC(O)C=CC1C(O)CC(O)C1CCCCCCC(=O)O (stereo not drawn) [NSC_5280939]	< 5.00
CCCCC[C@H](O)/C=C/[C@H]1[C@H](O)CC(=O)[C@@H]1C/C=C\CCCC(=O)O [DINOPROSTONE]	< 5.00
CCCCCC(O)C=CC1C(O)CC2OC(CCCCC(=O)O)CC21 (stereo not drawn) [CAS_162981]	5.13
CCCCC[C@H](O)/C=C/[C@@H]1[C@@H](CC(=O)CCC(=O)O)[C@@H](O)C[C@H]1O [2,3-dinor-6-ketoprostaglandin F1alpha]	< 5.00
CCCCC[C@H](O)CC[C@H]1[C@H](O)CC(=O)[C@@H]1CCCCCCC(=O)O [CAS_19313-28-1]	6.50
CCCCC[C@H](O)/C=C/C1[C@H](O)C[C@H](O)[C@@H]1C/C=C\CCCC(=O)O (stereo partly drawn) [(Z)-7-[(1R,3R,5S)-3,5-Dihydroxy-2-((E)-(S)-3-hydroxy-oct-1-enyl)-cyclopentyl]-hept-5-enoic acid]	< 5.00
CCCCCC(=O)CC[C@H]1[C@H](O)CC(=O)[C@@H]1C/C=C\CCCC(=O)O [13,14-DIHYDRO-15-KETO PROSTAGLANDIN E2]	5.08 and < 5.00
CCCCC[C@H](O)/C=C/[C@@H]1[C@H]2C/C(=C\CCCC(=O)O)C[C@H]2C[C@H]1O	7.78
O=C(O)CCC/C=C\C[C@H]1C(=O)C[C@@H](O)[C@@H]1/C=C/[C@@H](O)CCc1ccccc1 [17-PHENYL TRINOR PROSTAGLANDIN E2]	5.36
CCCCC[C@@H](O)/C=C/[C@H]1[C@H](O)CC(=O)[C@@H]1CCCCCCC(=O)O	6.86
CCCCC[C@@H](O)/C=C/[C@H]1[C@H](O)CC(=O)[C@@H]1C/C=C\CCCC(=O)O	< 5.00
CCCCC[C@H](O)/C=C/[C@H]1[C@H](O)CC(=O)[C@@H]1C/C=C/CCCC(=O)O [(E)-7-((1R,2R,3R)-3-hydroxy-2-((S,E)-3-hydroxyoct-1-enyl)-5-oxocyclopentyl)hept-5-enoic acid]	6.13
